US10800792B2, “Inhibitors of Bruton's tyrosine kinase and method of their use” (JANSSEN PHARMACEUTICA NV, priority 2015, dated 2020)

Target: unphosphorylated-BTK kinase domain (UP-BTK), GST-tagged human BTK (389-659aa) (Homo sapiens (Human), UniProt Q06187)
Assay: BTK kinase Lanthascreen binding assay
Conditions: Lanthascreen tracer competition, 60 minutes incubation; pIC50 = negative log of the IC50 in molar
Method in brief: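 Tracer-displacement binding assay against the non-phosphorylated enzyme, read by Lanthascreen. Reported: pIC50.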

Sequence of unphosphorylated-BTK kinase domain (UP-BTK), GST-tagged human BTK (389-659aa) (Q06187 389-659): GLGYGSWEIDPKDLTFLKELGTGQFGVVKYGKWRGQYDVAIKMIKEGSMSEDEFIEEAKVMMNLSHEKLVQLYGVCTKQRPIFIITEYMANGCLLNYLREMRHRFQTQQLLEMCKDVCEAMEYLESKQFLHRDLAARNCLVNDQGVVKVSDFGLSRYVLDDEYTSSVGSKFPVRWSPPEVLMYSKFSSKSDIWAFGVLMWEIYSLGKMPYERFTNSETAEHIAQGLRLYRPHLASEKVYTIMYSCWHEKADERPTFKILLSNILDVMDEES

SMILES	BTK_I_binding pIC50
CC(C)c1cc(N2C(=O)Nc3c(C(=O)N[C@@H]4CCCNC4)sc4nccc2c34)ccn1 [Example 727, (R)-5-(2-Isopropylpyridin-4-yl)-4-oxo-N-(piperidin-3-yl)-4,5-dihydro-3H-1-thia-3,5,8-triazaacenaphthylene-2-carboxamide]	<6
C=CC(=O)N1CC[C@@H](NC(=O)c2sc3nccc4c3c2NC(=O)N4c2cccc(-c3cccc(F)c3F)c2)C1 [Example 673, (R)—N-(1-Acryloylpyrrolidin-3-yl)-5-(2′,3′-difluoro-[1,1′-biphenyl]-3-yl)-4-oxo-4,5-dihydro-3H-1-thia-3,5,8-triazaacenaphthylene-2-carboxamide]	8.2
Cc1ccccc1N1C(=O)Nc2c(C(=O)N[C@@H]3CCCN(C(=O)/C(C#N)=C/C4CC4)C3)sc3nccc1c23 [Example 854, (R,E)-N-(1-(2-Cyano-3-cyclopropylacryloyl)piperidin-3-yl)-4-oxo-5-(o-tolyl)-4,5-dihydro-3H-1-thia-3,5,8-triazaacenaphthylene-2-carboxamide]	7.5
Cc1cc(Oc2ccccc2)ccc1N1C(=O)Nc2c(NC(=O)C3CCCN(C#N)C3)sc3nccc1c23 (centres unmarked) [Example 802, 1-Cyano-N-(5-(2-methyl-4-phenoxyphenyl)-4-oxo-4,5-dihydro-3H-1-thia-3,5,8-triazaacenaphthylen-2-yl)piperidine-3-carboxamide]	6.1
C=CC(=O)N1CCC[C@@H](NC(=O)c2sc3nccc4c3c2NC(=O)N4c2cccc(Oc3ccccc3)n2)C1 [Example 635, (R)—N-(1-Acryloylpiperidin-3-yl)-4-oxo-5-(6-phenoxypyridin-2-yl)-4,5-dihydro-3H-1-thia-3,5,8-triazaacenaphthylene-2-carboxamide]	5.8
CC(C)(C)OC(=O)N1CCC[C@@H](NC(=O)c2sc3nccc4c3c2NC(=O)N4c2cccc(C3CCOCC3)c2)C1 [Example 739, (R)-tert-Butyl 3-(4-oxo-5-(3-(tetrahydro-2H-pyran-4-yl)phenyl)-4,5-dihydro-3H-1-thia-3,5,8-triazaacenaphthylene-2-carboxamido)piperidine-1-carboxylate]	<6
C=CC(=O)N1CC[C@@H](NC(=O)c2sc3nccc4c3c2NC(=O)N4c2cnc(Oc3ccccc3)nc2)C1 [Example 748, (R)—N-(1-Acryloylpyrrolidin-3-yl)-4-oxo-5-(2-phenoxypyrimidin-5-yl)-4,5-dihydro-3H-1-thia-3,5,8-triazaacenaphthylene-2-carboxamide]	6.8
C=CC(=O)N1CC[C@@H](NC(=O)c2sc3nccc4c3c2NC(=O)N4c2ccc(Oc3ccccc3)nc2)C1 [Example 680, (R)—N-(1-Acryloylpyrrolidin-3-yl)-4-oxo-5-(6-phenoxypyridin-3-yl)-4,5-dihydro-3H-1-thia-3,5,8-triazaacenaphthylene-2-carboxamide]	7.3

Same assay, conditions: pIC50 = negative log of the IC50 in molar; 60 minutes incubation, 50 nM Tracer 236

SMILES	BTK_I_binding pIC50
COC[C@@H](O)C(=O)N1CCC[C@@H](NC(=O)c2sc3nccc4c3c2NC(=O)N4c2ccc(Oc3ccccc3)cc2C)C1 [Example 143, N—((R)-1-((R)-2-Hydroxy-3-methoxypropanol)piperidin-3-yl)-5-(2-methyl-4-phenoxyphenyl)-4-oxo-4,5-dihydro-3H-1-thia-3,5,8-triazaacenaphthylene-2-carboxamide]	7.3
C=CC(=O)N1C[C@@H](O)[C@@H](NC(=O)c2sc3nccc4c3c2NC(=O)N4c2ccc(Oc3ccccc3)cc2C)C1 [Example 58, N-((3S,4R)-1-Acryloyl-4-hydroxypyrrolidin-3-yl)-5-(2-methyl-4-phenoxyphenyl)-4-oxo-4,5-dihydro-3H-1-thia-3,5,8-triazaacenaphthylene-2-carboxamide]	7.6
Cc1cc(Oc2ccccc2)ccc1N1C(=O)Nc2c(C(=O)NC3CCN(C)C(C)C3)sc3nccc1c23 (centres unmarked) [Example 203, N-(1,2-Dimethylpiperidin-4-yl)-5-(2-methyl-4-phenoxyphenyl)-4-oxo-4,5-dihydro-3H-1-thia-3,5,8-triazaacenaphthylene-2-carboxamide]	6.5
C=CC(=O)N1C[C@@H](F)[C@@H](NC(=O)c2sc3nccc4c3c2NC(=O)N4c2ccc(Oc3ccccc3)cc2C)C1 [Example 37, N-((3S,4R)-1-Acryloyl-4-fluoropyrrolidin-3-yl)-5-(2-methyl-4-phenoxyphenyl)-4-oxo-4,5-dihydro-3H-1-thia-3,5,8-triazaacenaphthylene-2-carboxamide]	7.6
C=CC(=O)N1CCC[C@@H](NC(=O)c2sc3nccc4c3c2NC(=O)N4c2ccccc2F)C1 [Example 194, (R)—N-(1-Acryloylpiperidin-3-yl)-5-(2-fluorophenyl)-4-oxo-4,5-dihydro-3H-1-thia-3,5,8-triazaacenaphthylene-2-carboxamide]	6.9

Same assay, conditions: pIC50 = negative log of the IC50 in molar; 60 minutes incubation, 50 nM Tracer 236; read-out: BTK_I_binding pIC50 (converted)

SMILES	IC50 [µM]
C=CC(=O)N1CCC[C@@H](NC(=O)c2sc3nccc4c3c2NC(=O)N4c2ccc(Oc3ccccc3CC)cc2C)C1 [Example 19, (R)—N-(1-Acryloylpiperidin-3-yl)-5-(4-(2-ethylphenoxy)-2-methylphenyl)-4-oxo-4,5-dihydro-3H-1-thia-3,5,8-triazaacenaphthylene-2-carboxamide]	0.0631
COC[C@@H](N)C(=O)N1CCC[C@@H](NC(=O)c2sc3nccc4c3c2NC(=O)N4c2ccc(Oc3ccccc3)cc2C)C1 [Example 111, N—((R)-1-((R)-2-Amino-3-methoxypropanoyl)piperidin-3-yl)-5-(2-methyl-4-phenoxyphenyl)-4-oxo-4,5-dihydro-3H-1-thia-3,5,8-triazaacenaphthylene-2-carboxamide]	0.0631
Cc1cc(Oc2ccccc2)ccc1N1C(=O)Nc2c(C(=O)NC3CC[C@@H](C)NC3)sc3nccc1c23 (mixture of isomers) [Example 173, 5-(2-Methyl-4-phenoxyphenyl)-N-((6R)-6-methylpiperidin-3-yl)-4-oxo-4,5-dihydro-3H-1-thia-3,5,8-triazaacenaphthylene-2-carboxamide]	0.158

Same assay, conditions: unphosphorylated-BTK kinase domain, 50 nM Tracer 236, 60 minutes; pIC50 = negative log of the IC50 in molar

SMILES	BTK_I_binding pIC50
C=CC(=O)N1CCC[C@@H](NC(=O)c2sc3nccc4c3c2NC(=O)N4c2cccnc2C)C1 [Example 358, (R)—N-(1-Acryloylpiperidin-3-yl)-5-(2-methylpyridin-3-yl)-4-oxo-4,5-dihydro-3H-1-thia-3,5,8-triazaacenaphthylene-2-carboxamide]	5.2
Cc1cc(Oc2ccccc2)ccc1N1C(=O)Nc2c(C(=O)NC[C@H]3CCCN3C)sc3nccc1c23 [Example 285, (R)-5-(2-Methyl-4-phenoxyphenyl)-N-((1-methylpyrrolidin-2-yl)methyl)-4-oxo-4,5-dihydro-3H-1-thia-3,5,8-triazaacenaphthylene-2-carboxamide]	6.2
O=C(N[C@@H]1CCCNC1)c1sc2nccc3c2c1NC(=O)N3Cc1ccc(Oc2ccccc2)cc1 [Example 412, (R)-4-Oxo-5-(4-phenoxybenzyl)-N-(piperidin-3-yl)-4,5-dihydro-3H-1-thia-3,5,8-triazaacenaphthylene-2-carboxamide]	<5
CCC(=O)N1CC[C@@H](NC(=O)c2sc3nccc4c3c2NC(=O)N4c2ccc(Oc3ccccc3)cc2C)C1 (single isomer, unassigned) [Example 325, (R)-5-(*R)-(2-Methyl-4-phenoxyphenyl)-4-oxo-N-(1-propionylpyrrolidin-3-yl)-4,5-dihydro-3H-1-thia-3,5,8-triazaacenaphthylene-2-carboxamide]	5.7
C=CC(=O)N1CC[C@@H](NC(=O)c2sc3nccc4c3c2NC(=O)N4c2ccccc2C)C1 [Example 314, (R)—N-(1-Acryloylpyrrolidin-3-yl)-4-oxo-5-(o-tolyl)-4,5-dihydro-3H-1-thia-3,5,8-triazaacenaphthylene-2-carboxamide]	5.9
C=CC(=O)N1CCC[C@@H](NC(=O)c2sc3nccc4c3c2NC(=O)N4c2ccc(OC(F)(F)F)cc2)C1 [Example 416, (R)—N-(1-Acryloylpiperidin-3-yl)-4-oxo-5-(4-(trifluoromethoxy)phenyl)-4,5-dihydro-3H-1-thia-3,5,8-triazaacenaphthylene-2-carboxamide]	6.7
O=C(NCC1CCNC1)c1sc2nccc3c2c1NC(=O)N3c1ccc(Oc2ccccc2)cc1 (centres unmarked) [Example 453, 4-Oxo-5-(4-phenoxyphenyl)-N-(pyrrolidin-3-ylmethyl)-4,5-dihydro-3H-1-thia-3,5,8-triazaacenaphthylene-2-carboxamide]	6.4
CO[C@H]1CNC[C@@H]1NC(=O)c1sc2nccc3c2c1NC(=O)N3c1ccc(Oc2ccccc2)cc1 [Example 588, N-((3S,4S)-4-Methoxypyrrolidin-3-yl)-4-oxo-5-(4-phenoxyphenyl)-4,5-dihydro-3H-1-thia-3,5,8-triazaacenaphthylene-2-carboxamide]	6.4
C=CC(=O)N1CC[C@@H](NC(=O)c2sc3nccc4c3c2NC(=O)N4c2ccc(Oc3ccccc3)cc2C(F)(F)F)C1 [Example 324, (R)—N-(1-Acryloylpyrrolidin-3-yl)-4-oxo-5-(4-phenoxy-2-(trifluoromethyl)phenyl)-4,5-dihydro-3H-1-thia-3,5,8-triazaacenaphthylene-2-carboxamide]	5.7

Same assay, conditions: unphosphorylated-BTK kinase domain, 50 nM Tracer 236, 60 minutes; pIC50 = negative log of the IC50 in molar; read-out: BTK_I_binding pIC50 (converted)

SMILES	IC50 [µM]
Cc1cc(OC(F)(F)F)ccc1N1C(=O)Nc2c(C(=O)N[C@@H]3CCCNC3)sc3nccc1c23 [Example 413, (R)-5-(2-Methyl-4-(trifluoromethoxy)phenyl)-4-oxo-N-(piperidin-3-yl)-4,5-dihydro-3H-1-thia-3,5,8-triazaacenaphthylene-2-carboxamide]	2.51
